According to ChEMBL document CHEMBL1201862, “PubChem BioAssay data set” (2004):
Activity calls are given as the source filed them.

Tests used:
cells = format: functional
[1] = molecular target: T1, Microphthalmia-associated transcription factor (Homo sapiens, UniProt O75030); assay: TRPM1 promoter luciferase signal decrease, dose response, MITF inhibitor project, cell-based, SK-MEL-5, cherry-picked, set 3 (AID 493073); format: functional
T1 sequence (O75030 whole entry): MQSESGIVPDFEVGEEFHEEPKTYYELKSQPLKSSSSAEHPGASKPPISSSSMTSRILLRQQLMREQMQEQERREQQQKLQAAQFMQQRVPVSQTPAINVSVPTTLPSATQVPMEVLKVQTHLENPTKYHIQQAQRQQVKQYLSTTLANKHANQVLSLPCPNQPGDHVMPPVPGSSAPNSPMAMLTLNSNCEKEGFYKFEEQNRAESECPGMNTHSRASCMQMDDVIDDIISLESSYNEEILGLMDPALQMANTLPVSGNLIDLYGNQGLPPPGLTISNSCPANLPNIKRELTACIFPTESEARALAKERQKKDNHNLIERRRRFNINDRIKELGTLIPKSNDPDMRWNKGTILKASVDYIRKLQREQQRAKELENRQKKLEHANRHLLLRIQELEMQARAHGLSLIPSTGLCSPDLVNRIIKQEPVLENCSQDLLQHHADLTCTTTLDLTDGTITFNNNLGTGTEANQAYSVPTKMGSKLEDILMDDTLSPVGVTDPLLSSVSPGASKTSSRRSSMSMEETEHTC

Protein RecA [2] = molecular target: T2, Protein RecA (Mycobacterium tuberculosis, UniProt P9WHJ3); assay: GFP-RecA MOA-DTT Measured in Biochemical System Using Plate Reader - 2047-05_Inhibitor_Dose_DryPowder_Activity. [Related pubchem assays (depositor defined):AID2223]; design: species or system Mycobacterium tuberculosis H37Rv
T2 sequence (P9WHJ3 whole entry): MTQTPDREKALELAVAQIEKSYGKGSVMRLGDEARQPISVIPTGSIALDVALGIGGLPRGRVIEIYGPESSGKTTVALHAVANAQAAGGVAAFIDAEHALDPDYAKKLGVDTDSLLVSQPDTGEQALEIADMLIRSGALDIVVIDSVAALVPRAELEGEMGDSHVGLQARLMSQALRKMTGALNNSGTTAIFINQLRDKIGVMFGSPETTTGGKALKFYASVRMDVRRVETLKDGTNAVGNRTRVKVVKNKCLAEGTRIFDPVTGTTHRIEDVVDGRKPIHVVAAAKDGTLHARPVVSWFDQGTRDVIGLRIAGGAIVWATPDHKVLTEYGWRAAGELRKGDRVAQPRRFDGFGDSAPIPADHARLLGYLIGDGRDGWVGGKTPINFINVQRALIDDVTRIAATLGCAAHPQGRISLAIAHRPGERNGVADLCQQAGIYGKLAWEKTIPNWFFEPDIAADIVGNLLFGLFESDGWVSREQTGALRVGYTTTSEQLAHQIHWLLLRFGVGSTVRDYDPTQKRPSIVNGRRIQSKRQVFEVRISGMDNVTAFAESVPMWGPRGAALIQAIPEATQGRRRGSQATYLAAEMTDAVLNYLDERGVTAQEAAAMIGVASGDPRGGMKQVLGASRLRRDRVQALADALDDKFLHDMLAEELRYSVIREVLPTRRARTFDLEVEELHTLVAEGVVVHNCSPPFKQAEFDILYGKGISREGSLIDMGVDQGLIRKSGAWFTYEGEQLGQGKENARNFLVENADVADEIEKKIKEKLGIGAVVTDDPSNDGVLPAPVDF

Protein RecA [3] = molecular target: T2, Protein RecA; assay: RecA Intein Measured in Biochemical System Using Plate Reader - 2047-02_Inhibitor_Dose_DryPowder_Activity. [Related pubchem assays (depositor defined):AID2223]; design: species or system Mycobacterium tuberculosis H37Rv
[4] = molecular target: T3, Replicative DNA helicase DnaB (Mycobacterium tuberculosis, UniProt P9WMR3); assay: DnaB Intein secondary assay Measured in Biochemical System Using Plate Reader - 2047-04_Inhibitor_Dose_DryPowder_Activity. [Related pubchem assays (depositor defined):AID2223]
T3 sequence (P9WMR3 whole entry): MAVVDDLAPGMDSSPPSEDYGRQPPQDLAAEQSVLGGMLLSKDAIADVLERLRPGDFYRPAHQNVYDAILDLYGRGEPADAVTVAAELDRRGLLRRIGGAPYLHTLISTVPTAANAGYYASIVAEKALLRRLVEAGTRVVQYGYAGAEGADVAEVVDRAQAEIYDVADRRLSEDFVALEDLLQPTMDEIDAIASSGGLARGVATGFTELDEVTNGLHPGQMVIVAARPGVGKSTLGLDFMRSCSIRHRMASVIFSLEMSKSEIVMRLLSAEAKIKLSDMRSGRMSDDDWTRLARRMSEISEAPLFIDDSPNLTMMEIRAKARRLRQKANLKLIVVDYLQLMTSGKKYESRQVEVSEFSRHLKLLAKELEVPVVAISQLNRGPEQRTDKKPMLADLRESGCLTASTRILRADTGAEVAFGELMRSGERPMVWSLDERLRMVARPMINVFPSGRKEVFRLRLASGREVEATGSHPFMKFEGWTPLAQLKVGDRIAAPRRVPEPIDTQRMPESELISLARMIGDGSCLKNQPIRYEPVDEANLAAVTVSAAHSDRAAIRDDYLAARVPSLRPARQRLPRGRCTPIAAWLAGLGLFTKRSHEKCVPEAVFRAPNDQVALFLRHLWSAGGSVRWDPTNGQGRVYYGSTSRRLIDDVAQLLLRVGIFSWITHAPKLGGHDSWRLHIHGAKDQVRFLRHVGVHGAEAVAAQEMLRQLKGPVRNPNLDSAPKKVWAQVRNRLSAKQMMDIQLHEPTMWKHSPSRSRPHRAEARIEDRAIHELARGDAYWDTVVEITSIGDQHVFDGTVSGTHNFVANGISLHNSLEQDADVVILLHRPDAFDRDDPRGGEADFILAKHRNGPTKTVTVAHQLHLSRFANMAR

[5] = THP-1 cell cytotoxicity, dose response, cytotoxicity control for non-replicating M. tuberculosis project (AID 489025); format: functional
Nonstructural protein 1 = Nonstructural protein 1 (Influenza A virus, UniProt Q194T2); format: functional, Influenza A virus (A/California/07/2009(H1N1))
[6] = Intein inhibitors as potential Tuberculosis drugs, a cytotoxicity screen. [Related pubchem assays (depositor defined):AID2221, AID2223, AID434968, AID435010, AID449749, AID449750, AID489010]; format: functional
Protein RecA [7] = molecular target: T2, Protein RecA; assay: Fluorescence Cell-Free Homogeneous Dose Retest to Identify Inhibitors of RecA-Intein Splicing Activity. [Related pubchem assays (depositor defined):AID2097, AID2223, AID489010, AID492950]; format: functional
[8] = molecular target: T3, Replicative DNA helicase DnaB; assay: DnaB intein splicing inhibitors, dose response, biochemical, cell-free fluorescence (AID 449749); format: functional
[9] = Vero E6 cell cytotoxicity, dose response, cytotoxicity control for non-replicating M. tuberculosis project, secondary assay (AID 492998); format: functional, VeroE6; details: Vero C1008

Chain of Nonstructural protein 1 (Q194T2 whole entry): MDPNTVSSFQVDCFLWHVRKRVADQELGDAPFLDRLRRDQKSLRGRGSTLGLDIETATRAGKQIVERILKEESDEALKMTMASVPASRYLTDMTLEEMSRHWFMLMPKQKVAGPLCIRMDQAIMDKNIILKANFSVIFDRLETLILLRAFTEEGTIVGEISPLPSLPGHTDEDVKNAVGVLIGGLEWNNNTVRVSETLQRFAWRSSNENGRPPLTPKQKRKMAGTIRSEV

Cc1ccccc1-n1ncc2c([N+](=O)[O-])cc([N+](=O)[O-])cc21
active: IC50 (cells) 0.95 µM | AC50 [1] 8.7 µM | AC50 (Protein RecA [2]) 232 µM | AC50 (Protein RecA [3]) 2.19 µM | AC50 [4] 5.7 µM | CC50 [5] > 40 µM | IC50 (Nonstructural protein 1) 31.1 µM | CC50 [6] 30.8 µM | EC50 (Protein RecA [7]) 0.911 µM | AC50 [8] 3.15 µM | CC50 [9] > 20 µM
